Patent US6469006B1, “Antiviral indoleoxoacetyl piperazine derivatives” (priority 1999, dated 2002)

System: single-round infectious HIV-1 reporter virus
Experiment: microbe, parasite or virus in culture
Format: cell-based
Conditions: Human immunodeficiency virus 1, HeLa-CD4/CCR5, 72 h, read-out: % Inhibition @ 10 μM
Source text: The virus infection was quantified 3 days after infection by measuring luciferase expression from integrated viral DNA in the infected cells (Chen et al, Ref. 41).
Virus production—Human embryonic Kidney cell line, 293, propagated in Dulbecco's Modified Eagle Medium (Life Technologies, Gaithersburg, Md.) containing 10% fetal Bovine serum (FBS, Sigma, St. Louis, Mo.).
Virus infection—Human epithelial cell line, HeLa, expressing the HIV-1 receptors CD4 and CCR5 was propagated in Dulbecco's Modified Eagle Medium (Life Technologies, Gaithersburg, Md.) containing 10% fetal Bovine serum (FBS, Sigma, St. Louis, Mo.) and supplemented with 0.2 mg/ml Geneticin (Life Technologies, Gaithersburg, Md.) and 0.4 mg/ml Zeocin (Invitrogen, Carlsbad, Calif.).
Virus-Replication defective reporter virus was produced by co-transfecting human embryonic Kidney 293 cells with an HIV-1 envelope DNA expression vector and a proviral cDNA containing an envelope deletion mutation and the luciferase reporter gene inserted in place of HIV-1 nef sequences (Chen, 1994). Transfections were performed using lipofectAMINE PLUS reagent as described by the manufacturer (Life Technologies, Gaithersburg, Md.).
1. Compound was added to HeLa CD4 CCR5 cells plated in 96 well plates at a cell density of 5×10^4 cells per well in 100 ul Dulbecco's Modified Eagle Medium containing 10% fetal Bovine serum at a concentration of <20 uM.
2. 100 ul of replication defective reporter virus in Dulbecco's Modified Eagle Medium was then added to the plated cells and compound at a multiplicity of infection (MOI) of 0.01, resulting in a final volume of 200 ul per well and a final compound concentration of <10 uM.
3. Samples were harvested 72 hours after infection.
4. Viral infection was monitored by measuring luciferase expression from viral DNA in the infected cells using a luciferase reporter gene assay kit (Roche Molecular Biochemicals, Indianapolis, Ind.). Infected cell supernatants were removed and 50 ul of Dulbecco's Modified Eagle Medium (without phenol red) and 50 ul of luciferase assay reagent reconstituted as described by the manufacturer (Roche Molecular Biochemicals, Indianapolis, Ind.) was added per well. Luciferase activity was then quantified by measuring luminescence using a Wallac microbeta scintillation counter.

| Compound | inhibition at 10 µM |
| --- | --- |
| C[C@@H]1CN(C(=O)c2ccccn2)CCN1C(=O)C(=O)c1c[nH]c2c(C#N)cccc12 [Example 212] | > 98% |

Same assay, conditions: Table 1, Examples 35-90; HeLa CD4 CCR5 cells, luciferase reporter virus, 3 days after infection

| Compound | % Inhibition @ 10 uM |
| --- | --- |
| CC(=O)Oc1cccc(C(=O)N2CCN(C(=O)C(=O)c3c[nH]c4cccc(Cl)c34)CC2)c1 [Example 86] | >98% |
| COc1ccc(F)c2c(C(=O)C(=O)N3CCN(C(=O)c4cccc(N)c4)CC3C)c[nH]c12 (centres unmarked) [Example 80] | >98% |
| O=C(C(=O)N1CCN(C(=O)c2ccc(O)cc2)CC1)c1c[nH]c2cccc(F)c12 [Example 89] | 95% |
| COc1cccc2[nH]cc(C(=O)C(=O)N3CCN(C(=O)c4cccc(N)c4)CC3C)c12 (centres unmarked) [Example 79] | >98% |
| COc1ccc(F)c2c(C(=O)C(=O)N3CCN(C(=O)c4ccc(N)cc4)CC3C)c[nH]c12 (centres unmarked) [Example 81] | >98% |
| COc1ccc(Cl)c2[nH]cc(C(=O)C(=O)N3CCN(C(=O)c4ccc(N)cc4)CC3C)c12 (centres unmarked) [Example 78] | >98% |
| CC1CN(C(=O)c2ccc(N)cc2)CCN1C(=O)C(=O)c1c[nH]c2c(F)ccc(F)c12 (centres unmarked) [Example 75] | >98% |
| O=C(C(=O)N1CCN(C(=O)c2ccccc2O)CC1)c1c[nH]c2cccc(F)c12 [Example 87] | 86% |
| Nc1cccc(C(=O)N2CCN(C(=O)C(=O)c3c[nH]c4c(F)ccc(F)c34)CC2)c1 [Example 73] | >98% |
| CC1CN(C(=O)c2cccc(N)c2)CCN1C(=O)C(=O)c1c[nH]c2cccc(F)c12 (centres unmarked) [Example 76] | >98% |
| CC(=O)Oc1ccc(C(=O)N2CCN(C(=O)C(=O)c3c[nH]c4cccc(F)c34)CC2)cc1 [Example 84] | 98% |
| CC(=O)Oc1ccccc1C(=O)N1CCN(C(=O)C(=O)c2c[nH]c3cccc(F)c23)CC1 [Example 82] | 91% |
| COc1ccc(Cl)c2[nH]cc(C(=O)C(=O)N3CCN(C(=O)c4cccc(N)c4)CC3C)c12 (centres unmarked) [Example 77] | >98% |
| CC(=O)Oc1ccc(C(=O)N2CCN(C(=O)C(=O)c3c[nH]c4cccc(Cl)c34)CC2)cc1 [Example 85] | 93% |
| Nc1cccc(C(=O)N2CCN(C(=O)C(=O)c3c[nH]c4ccccc34)CC2)c1 [Example 72] | 87% |
| CC(=O)Oc1cccc(C(=O)N2CCN(C(=O)C(=O)c3c[nH]c4cccc(F)c34)CC2)c1 [Example 83] | >98% |
| O=C(C(=O)N1CCN(C(=O)c2cccc(O)c2)CC1)c1c[nH]c2cccc(F)c12 [Example 88] | >98% |
| CC1CN(C(=O)c2cccc(N)c2)CCN1C(=O)C(=O)c1c[nH]c2c(F)ccc(F)c12 (centres unmarked) [Example 74] | >98% |

Same assay, conditions: Table 4; HeLa CD4 CCR5 cells, luciferase reporter virus, 3 days after infection

| Compound | % Inhibition @ 10 μM |
| --- | --- |
| CC1CN(C(=O)c2ccccn2)CCN1C(=O)C(=O)c1c[nH]c2cc(Cl)ccc12 (centres unmarked) [Entry 206] | 88% |
| COc1cccc2c(C(=O)C(=O)N3CCN(C(=O)c4ccccn4)C[C@H]3C)c[nH]c12 [Entry 208] | >98% |
| COc1ccc(Cl)c2[nH]cc(C(=O)C(=O)N3CCN(C(=O)c4ccccn4)C[C@H]3C)c12 [Entry 211] | >98% |
| CC1CN(C(=O)c2ccc(Br)o2)CCN1C(=O)C(=O)c1c[nH]c2c(F)ccc(F)c12 (centres unmarked) [Entry 198] | >98% |
| COc1ccc(Br)c2[nH]cc(C(=O)C(=O)N3CCN(C(=O)c4ccccn4)C[C@H]3C)c12 [Entry 214] | >98% |
| CC1CN(C(=O)c2ccccn2)CCN1C(=O)C(=O)c1c[nH]c2cccc(F)c12 (centres unmarked) [Entry 202] | >98% |
| CC1CN(C(=O)c2ccccn2)CCN1C(=O)C(=O)c1c[nH]c2cccc(Br)c12 (centres unmarked) [Entry 204] | 50% |
| Cc1cccc2c(C(=O)C(=O)N3CCN(C(=O)c4ccccn4)C[C@H]3C)c[nH]c12 [Entry 209] | >98% |
| Cc1ccc(F)c2c(C(=O)C(=O)N3CCN(C(=O)c4ccccn4)CC3C)c[nH]c12 (centres unmarked) [Entry 197] | 93% |
| CC1CN(C(=O)c2ccccn2)CCN1C(=O)C(=O)c1c[nH]c2c(F)ccc(F)c12 (centres unmarked) [Entry 196] | >98% |
| CC1CN(C(=O)c2ccccn2)CCN1C(=O)C(=O)c1c[nH]c2c(F)ccc(F)c12 (centres unmarked) [Entry 201] | >98% |
| CC1CN(C(=O)c2ccccn2)CCN1C(=O)C(=O)c1c[nH]c2c(F)cccc12 (centres unmarked) [Entry 207] | >98% |
| COc1ccc(F)c2c(C(=O)C(=O)N3CCN(C(=O)c4ccccn4)C[C@H]3C)c[nH]c12 [Entry 215] | >98% |
| COc1cccc2[nH]cc(C(=O)C(=O)N3CCN(C(=O)c4ccccn4)C[C@H]3C)c12 [Entry 213] | >98% |
| CC1CN(C(=O)c2ccccn2)CCN1C(=O)C(=O)c1c[nH]c2cccc(Cl)c12 (centres unmarked) [Entry 203] | 80% |
| CCc1cccc2c(C(=O)C(=O)N3CCN(C(=O)c4ccccn4)C[C@H]3C)c[nH]c12 [Entry 210] | 88% |
| CC1CN(C(=O)c2ccccn2)CCN1C(=O)C(=O)c1c[nH]c2ccc(F)cc12 (centres unmarked) [Entry 205] | 61% |
| COC(=O)c1cccc2c(C(=O)C(=O)N3CCN(C(=O)c4ccc(Br)o4)CC3C)c[nH]c12 (centres unmarked) [Entry 200] | >98% |
| COc1ccc(OC)c2c(C(=O)C(=O)N3CCN(C(=O)c4ccc(Br)o4)CC3C)c[nH]c12 (centres unmarked) [Entry 199] | >98% |
